Measurements from patent US6242432A, “Antithrombotic organic nitrates” (Nicox S.A., priority 1996, dated 2001).

Key:
[1] = tested on: arterial hypertension induced by L-NAME; test: Antihypertensive activity: L-NAME induced arterial hypertension; type: in vivo, male Wistar rats; details: rats, 10 mg/kg intravenous daily for 5 days, 1 h after treatment, vehicle 170 ± 7, * P < 0.05 versus the other two groups
Experimental: (§1) The products from Examples 1 and 2 had been administered in vivo always as 2%-by-weight suspensions in carboxymethyl cellulose.
(§2) The experimental groups were made up of 6 to 8 samples to allow appropriate statistical evaluation, which was carried out when needed.
The ability of NO-ENA to inhibit hypertension was evaluated using an in vivo model as described by Ribeiro et al. (Hypertension 20, 298, 1992). 5 groups of male Wistar rats (235 to 284 g) received a daily intravenous dose of 10 mg/kg of, respectively, NO-ENA, enalapril, NO-TIM, timolol or vehicle for 5 days. Arterial hypertension was induced by administration of N^w -nitro-L-argininemethyl ester (L-NAME) in the drinking water for 6 weeks. L-NAME was dissolved in the drinking water at a concentration of 60 to 70 mg 100 ml^-1 so as to administer a daily amount of about 60 mg kg^-1. One hour after treatment the systemic blood pressure was measured by the tail-cap method (Zats, Lab. Anim. Sci.42, 198, 1990).

[2] = tested on: platelet aggregation induced by collagen; test: Antiplatelet activity: inhibition of collagen-induced platelet aggregation in vivo; design: species or system male Wistar rats; details: rats, 10 mg/kg oral daily for 5 days; collagen 2 mg/kg i.v.; per-cent inhibition of the control group
Experimental: as §1, §2
The ability of NO-ENA and NO-TIM to inhibit platelet aggregation was evaluated using an in vivo model as described by Pinon (J. Pharmacol. Methods 12,79,1989). 5 groups of male Wistar rats (200 to 250 g) received an oral daily dose of 10 mg/kg of respectively, NO-ENA, enalapril, NO-TIM, timolol or vehicle for 5 days. At an appropriate time on the forth day food (but not water) was withdrawn. 18 to 20 hours later the animals received the last treatment. One hour later the animals were anaesthetized with 10% urethane ([…] intraperitoneally) and the left jugular vein and right carotid artery were incannulated. Collagen (type 6, Sigma) was then administered intravenously at a dose of 2 mg/kg. Three minutes later two blood samples (A and B) were collected from the carotide artery using 2.5-ml plastic syringes in the following manner: sample A, 0.4 ml of blood in 1.6 ml of EDTA/formalin buffer (ETDA tetrasodium salt 24 mM, KH2 PO4 1.3 mM, Na2 PO4 13.4 mM), the samples were then transferred into 5-ml polystyrene test tubes and allowed to settle for 15 minutes at ambient temperature. After this time, the platelet aggregations in sample A were fixed in formalin, while those from sample B were treated with EDTA. Platelet count was then made in each sample using a conventional microscope. The count for sample B was the total number of platelets, while for sample A were considered only non-aggregated platelets. The results were expressed as per-cent aggregation, calculated as follows: {[1-(platelet count in sample A)/(platelet count in sample B)]×100}.

[3] = tested on: thrombosis induced by collagen plus adrenaline; test: Antithrombotic activity: collagen plus adrenaline induced thrombosis/death; type: in vivo, male Charles River rats of the Swiss strain; details: 10 mg/kg oral daily for 5 days; collagen plus adrenaline 100 μM into caudal vein
Experimental: as §1, §2
5 groups of male Charles River rats of the Swiss strain, 15 to 20 g, received a daily oral dose of 10 mg/kg of, respectively, NO-ENA, enalapril, NO-TIM, timolol or vehicle for 5 days. At an appropriate time on the fourth day food (but not water) was withdrawn. 18 to 20 hours later the animals received the last treatment. One hour later the animals were injected into the caudal vein with 0.1 ml of a collagen (type 6, Sigma) mixture plus adrenaline hydrochloride (100 μM) diluted in a solution of 0.154 M sodium chloride. As previously explained (Cirino G. et al., Thrombosis Reasearch 79, 73, 1995), injection of this mixture caused death within 3 minutes in 90% of the control animals.

[4] = tested on: bronchoconstriction induced by capsaicin; test: Effects on capsaicin-induced bronchoconstriction; type: in vivo, female Guinea pigs; details: Guinea pigs, 10 mg/kg intraduodenal; capsaicin 1 μg/kg 45 min later; vehicle = 100
Experimental: Bronchoconstriction induced by capsaicin in Guinea pigs is an animal model related to the ability of ACE (angiotensin-converting enzyme) inhibitors to cause cough in patients (Subissi et al., J. Cardiovasc. Pharmacol.20/1,139-146, 1992).
Adopted test conditions were as previously described by Del Soldato et al. (J. Pharmacological Methods 5, 279, 1981). Female Guinea pigs weighing 300 to 400 g were anaesthetised by intraperitoneal injection of sodium 5,5-diethylbarbiturate (200 mg/kg) and maintained under artificial respiration at constant positive pressure. The right jugular vein was incannulated for administering […]. By a median incision of the abdomen, the duodenum was removed and through a small incision the tip of a suitable polyethylene cannula was inserted and fixed. The other end of the cannula was connected to a syringe for intraduodenal administration of NO-ENA (10 mg/kg), enalapril (10 mg/kg) or vehicle. […] Before and after injection of capsaicin, changes in the tidal area were measured by a modified Konzett apparatus connected to a suitable polygraphic amplifier (Hewlett Packard).
The results were calculated as the ratio of the responses obtained before and after administration of the test compound, expressed as a % of the response obtained with the vehicle alone, shown in Table 4.

[5] = tested on: intraocular pressure; test: Ocular hypotensive activity, topical application in rabbits; type: in vivo; details: topical application of 100 μg
[6] = Plasma/aqueous humor concentration ratio by HPLC (ocular safety); type: in vivo; details: rabbits, topical, versus timolol
Experimental: Furthermore, for NO-TIM, the ratio between product concentrations in plasma (P) and aqueous humor (AH) versus timolol was determined by an HPLC method.

Row | BRONCHOCONSTRICTIVE RESPONSE (% of the response obtained with the vehicle alone) [4] | SMILES | MEAN BLOOD PRESSURE [1] | ANTIPLATELET ACTIVITY (per-cent inhibition of platelet aggregation versus vehicle control) [2] | ANTITHROMBOTIC ACTIVITY (inhibition percentage compared to the control group) [3] | duration of intraocular pressure reduction [5] | reduction of intraocular pressure [5] | reduction of intraocular pressure versus timolol and enalapril [5] | P/AH ratio (plasma/aqueous humor concentration), times lower than that for timolol [6]
1 | 327% | CCOC(=O)[C@H](CCc1ccccc1)N[C@@H](C)C(=O)N1CCC[C@H]1C(=O)O [ENALAPRIL, reference compound] | 163 ± 5 mmHg | 15% | 11% | – | – | – | –
2 | 72% | CCOC(=O)C(CCc1ccccc1)NC(C)C(=O)N1CCC[C@H]1C(=O)Oc1cccc(CO[N+](=O)[O-])c1 (stereo partly shown) [NO-ENA] | 115 ± 4 mmHg | 65% | 53% | more than 6 hours | 6 mmHg | more pronounced and more lasting | –
3 | – | CC(C)(C)NC[C@H](O)COc1nsnc1N1CCOCC1 [TIMOLOL, reference compound] | – | 2% | 6% | – | – | – | –
4 | – | CC(C)(C)NC[C@H](COc1nsnc1N1CCOCC1)OC(=O)CCCO[N+](=O)[O-].O=C(O)/C=C\C(=O)O [NO-TIM, (R)-(4-nitroxy)butanoate of 1-[(1,1-dimethylethyl)amino]-3-{[4-(4-morpholinyl)-1,2,5-thiadiazol-3-yl]oxy}-2-propyl maleate] | – | 58% | 44% | more than 6 hours | 7 mmHg | more pronounced and more lasting | 5.5 times
